Source: patent publication US7452683B2, “Caspase 9 activation and uses therefor” (Wyeth, priority 2002, dated 2008)
Counter-ions that a name gives are not always drawn.

Columns and labels:
Caspase 9 = molecular target: T1, Caspase 9 (Homo sapiens, UniProt P55211); assay: Caspase 9 cleavage of Ac-LEHD-AFC in buffers containing Hofmeister salts; assay type: biochemical
T1 construct: purchased
T1 sequence (P55211 1-315 limits assumed): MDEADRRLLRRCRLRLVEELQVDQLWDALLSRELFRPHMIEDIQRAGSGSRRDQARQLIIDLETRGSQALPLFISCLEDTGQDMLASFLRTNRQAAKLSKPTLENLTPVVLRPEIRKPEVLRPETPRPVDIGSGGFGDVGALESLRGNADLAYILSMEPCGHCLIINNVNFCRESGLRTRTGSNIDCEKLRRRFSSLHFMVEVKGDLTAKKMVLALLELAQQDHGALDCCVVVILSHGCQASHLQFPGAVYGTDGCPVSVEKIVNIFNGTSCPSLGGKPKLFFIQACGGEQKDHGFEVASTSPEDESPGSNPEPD
T1 sequence (P55211 331-416 limits assumed): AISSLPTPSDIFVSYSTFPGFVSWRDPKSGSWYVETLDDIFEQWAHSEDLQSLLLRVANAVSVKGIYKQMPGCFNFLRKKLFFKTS

Caspase 1 = molecular target: T2, Caspase 1 (Homo sapiens, UniProt P29466); assay: Caspase 1 activity in ammonium sulfate at various concentrations
T2 sequence (P29466 120-297 limits assumed): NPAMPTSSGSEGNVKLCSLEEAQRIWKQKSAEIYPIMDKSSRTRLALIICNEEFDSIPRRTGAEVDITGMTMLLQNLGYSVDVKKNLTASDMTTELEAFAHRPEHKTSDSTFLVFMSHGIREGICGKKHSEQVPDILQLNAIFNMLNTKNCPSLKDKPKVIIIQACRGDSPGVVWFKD
T2 sequence (P29466 317-404 limits assumed): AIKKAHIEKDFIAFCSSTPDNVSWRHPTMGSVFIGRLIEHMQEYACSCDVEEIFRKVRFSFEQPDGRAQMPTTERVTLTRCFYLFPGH
Method: (§1) The control buffer used to carry out specificity reactions is as follows: 20 mM PIPES pH 7.2, 1 mM EDTA, 0.1% CHAPS, 10% sucrose, 10 mM DTT. Various N-acetyl-tetrapeptide-7-amino-trifluoromethylcoumarin substrates at 100 uM were assayed with the different commercially available caspases. 2.5 mM stock substrate concentrations were prepared in DMSO and subsequently diluted to 200 uM with control buffer.
(§2) 300 U stock solutions of the enzymes in interest were prepared in the control buffer listed above. The assay was carried out as follows: 96 well black Dynex microfluorometer 1 plate was used. Total Assay volume was 100 ul. 7-amino-trifluoromethyl coumarin (AFC) was excited at 400 nm, and fluorescence emission was monitored at 505 nm kinetically for the duration of 1 hour (h) wherein AFC was cleaved from the peptide.
(§3) 50 ul of 200 uM stock substrate was added first (final assay concentration 100 uM). 40 ul of the control buffer was then added. The assay was initiated with the addition of 10 ul of the appropriate 300 U caspase stock (30 U in final assay). A linear rate (relative fluorescence U/s) was calculated from the entire duration of the experiment and graphed for each enzyme verses the various substrates tested.
(§4) The substrates in ammonium sulfate using Caspase 9 was 25 uM Ac-LEHD-Afc (SEQ ID NO: 5) and for Caspase 3 was 25 uM Ac-DEVD-Afc (SEQ ID NO: 1).

Caspase 7 = molecular target: T3, Caspase 7 (Homo sapiens, UniProt P55210); assay: Caspase 7 activity in ammonium sulfate at various concentrations
T3 sequence (P55210 24-198 limits assumed): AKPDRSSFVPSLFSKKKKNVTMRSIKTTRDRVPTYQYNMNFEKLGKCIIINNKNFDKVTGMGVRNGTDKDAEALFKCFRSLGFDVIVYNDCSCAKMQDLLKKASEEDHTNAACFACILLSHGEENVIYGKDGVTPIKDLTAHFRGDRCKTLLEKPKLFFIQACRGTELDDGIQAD
T3 sequence (P55210 207-303 limits assumed): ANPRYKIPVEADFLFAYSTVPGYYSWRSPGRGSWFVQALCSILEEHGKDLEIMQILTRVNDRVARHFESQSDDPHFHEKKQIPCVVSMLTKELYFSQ
Method: as §1, §2, §3, §4

Caspase 3 = molecular target: T4, Caspase 3 (Homo sapiens, UniProt P42574); assay: Caspase 3 cleavage of Ac-DEVD-Afc in ammonium sulfate at various concentrations; conditions: 25 uM Ac-DEVD-Afc
T4 sequence (P42574 29-175 limits assumed): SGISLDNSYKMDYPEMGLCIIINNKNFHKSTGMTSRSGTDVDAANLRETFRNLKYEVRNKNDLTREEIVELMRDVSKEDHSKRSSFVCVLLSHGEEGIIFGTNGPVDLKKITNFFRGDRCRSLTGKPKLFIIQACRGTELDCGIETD
T4 sequence (P42574 176-277 limits assumed): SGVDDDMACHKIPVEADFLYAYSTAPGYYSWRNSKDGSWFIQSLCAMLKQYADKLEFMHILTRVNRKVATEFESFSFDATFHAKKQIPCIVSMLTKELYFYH
Method: as §1, §2, §3, §4

[1] = molecular target: Herpes simplex virus 1 protease (Human herpesvirus 1, UniProt P10210); conditions: 1M Na citrate; cited from earlier work
Chain of Herpes simplex virus 1 protease (P10210 1-247): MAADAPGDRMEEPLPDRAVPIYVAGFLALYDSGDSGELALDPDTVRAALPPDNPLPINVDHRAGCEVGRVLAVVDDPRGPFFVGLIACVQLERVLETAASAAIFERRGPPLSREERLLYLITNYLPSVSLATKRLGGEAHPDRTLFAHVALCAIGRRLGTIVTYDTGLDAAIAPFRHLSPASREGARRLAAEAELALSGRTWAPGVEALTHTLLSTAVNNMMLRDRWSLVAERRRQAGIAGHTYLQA

For `N.N.O=S(=O)(O)O` [ammonium sulfate], the “Caspase 9 activity increase” value (Caspase 9; sulfate concentrations from 0 to 1.6 M, 25 uM Ac-LEHD-Afc) was 1400 fold, the “effect of salt on Caspase 1 activity” value (Caspase 1) was “no effect” and the “effect of salt on Caspase 7 activity” value (Caspase 7) was “no effect”. The “effect of salt on Caspase 3 activity” value (Caspase 3) was “minimal effect”.
In the case of `O=C(O)CC(O)(CC(=O)O)C(=O)O` [citrate, Na citrate], the “activity of Caspase 9 relative to activity in 0.8 M bromide” value (Caspase 9; 0.8 M salt in control buffer pH 7.2, 100 uM N-Ac-LEHD-Afc, 30 U Caspase 9/well (0.72 uM)) is listed as 10,000 fold and the “increase in activity of Herpes simplex virus 1 protease” value [1] is listed as 860 fold.
With `O=P(O)(O)O` [sodium phosphate] the “Caspase 9 activity increase” value (Caspase 9; phosphate concentrations from 0 to 1 M, 100 uM Ac-LEHD-Afc) was 2200 fold.
